Laboratory results from patent US20260250318A1, “COMPOSITIONS AND METHODS FOR CROSSING THE BLOOD BRAIN BARRIER” (VOYAGER THERAPEUTICS, INC., priority 2022, published 2026).

Experiments:
[1] = system: brains, heart, liver, muscle, and DRG of the NHPs; assay: Maturation of TTM-001 and TTM-002 capsids, NGS enrichment in NHP tissues; assay type: in vivo; details: relative to AAV9 control
In short: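 Variants carry mutations within and flanking the loop IV peptide insert: positions 450–466 were triplet-randomized, while positions 449–466 received low-frequency point mutations. The combined pool went into two NHPs, and each peptide was scored by NGS enrichment ratio against AAV9.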

brain = assay: Matured TTM-001 and TTM-002 variants, NGS enrichment in mouse brain; assay type: in vivo, mice; details: relative to AAV9 control
[2] = NGS fold-enrichment of RNA, NHP brain
[3] = NGS fold-enrichment, NHP liver DNA
[4] = NGS fold-enrichment, NHP liver RNA
[5] = NGS fold-enrichment, NHP muscle
[6] = NGS fold-enrichment, mouse brain
[7] = NGS fold-enrichment of matured AAV capsid variants, NHP brain, RNA
[8] = NGS fold-enrichment, DRG of NHPs
[9] = NGS fold-enrichment, RNA, brain of NHPs
[10] = NGS fold-enrichment, heart of NHPs
[11] = NGS fold-enrichment, liver DNA of NHPs
[12] = NGS fold-enrichment, liver RNA of NHPs
[13] = NGS fold-enrichment, muscle of NHPs
[14] = NGS fold-enrichment, brain of mice

Sequence	Fold Enrichment relative to AAV9, Brain (NHP) [1, 2] [fold]	Fold Enrichment relative to AAV9, DRG (NHP) ([1]; NGS fold-enrichment, NHP DRG) [fold]	Fold Enrichment relative to AAV9, Heart (NHP) ([1]; NGS fold-enrichment, NHP heart) [fold]	Fold Enrichment relative to AAV9, Liver DNA (NHP) [1, 3] [fold]	Fold Enrichment relative to AAV9, Liver RNA (NHP) [1, 4] [fold]	Fold Enrichment relative to AAV9, Muscle (NHP) [1, 5] [fold]	Fold Enrichment relative to AAV9, Brain (Mouse) (brain; [6]) [fold]	Fold Enrichment relative to AAV9, DRG (NHP) [1, 8] [fold]	Fold Enrichment relative to AAV9, Brain (NHP) [1, 9] [fold]	Fold Enrichment relative to AAV9, Heart (NHP) [1, 10] [fold]	Fold Enrichment relative to AAV9, Liver DNA (NHP) [1, 11] [fold]	Fold Enrichment relative to AAV9, Liver RNA (NHP) [1, 12] [fold]	Fold Enrichment relative to AAV9, Muscle (NHP) [1, 13] [fold]	Fold Enrichment relative to AAV9, Brain (Mouse) (brain; [14]) [fold]	further results
KTEGKHDSPHKSGQNQQT	98.384	0.000	0.056	0.000	0.000	0.000	10.345	–	–	–	–	–	–	–	–
KTEGLSGSPHSKAQNQQT	–	–	–	–	–	–	–	–	–	–	–	–	–	–	Fold Enrichment relative to AAV9, Brain (NHP) [1, 7]: 52.891 fold; Fold Enrichment relative to AAV9, DRG (NHP) ([1]; NHP DRG): 0.000 fold; Fold Enrichment relative to AAV9, Heart (NHP) ([1]; NHP heart): 0.000 fold; Fold Enrichment relative to AAV9, Liver DNA (NHP) ([1]; NHP liver, DNA): 0.155 fold; Fold Enrichment relative to AAV9, Liver RNA (NHP) ([1]; NHP liver, RNA): 0.104 fold; Fold Enrichment relative to AAV9, Muscle (NHP) ([1]; NHP muscle): 0.020 fold; Fold Enrichment relative to AAV9, Brain (Mouse) (brain; mouse brain): 104.529 fold
KTEHLSGSPHSKAQNQQT	83.080	0.000	0.000	0.189	0.021	0.012	69.494	0.000	83.080	0.000	0.189	0.021	0.012	69.494	–
KTEHVSGSPHSKAQNQQT	–	–	–	–	–	–	–	–	–	–	–	–	–	–	Fold Enrichment relative to AAV9, Brain (NHP) [1, 7]: 58.228 fold; Fold Enrichment relative to AAV9, DRG (NHP) ([1]; NHP DRG): 0.000 fold; Fold Enrichment relative to AAV9, Heart (NHP) ([1]; NHP heart): 0.024 fold; Fold Enrichment relative to AAV9, Liver DNA (NHP) ([1]; NHP liver, DNA): 0.141 fold; Fold Enrichment relative to AAV9, Liver RNA (NHP) ([1]; NHP liver, RNA): 0.433 fold; Fold Enrichment relative to AAV9, Muscle (NHP) ([1]; NHP muscle): 0.000 fold; Fold Enrichment relative to AAV9, Brain (Mouse) (brain; mouse brain): 71.410 fold
KTEITSGSPHSKAQNQQT	79.620	0.000	0.163	0.074	0.332	0.000	76.686	0.000	79.620	0.163	0.074	0.332	0.000	76.686	–
KTEKASGSPHSKAQNQQT	80.285	0.000	0.041	0.261	0.000	0.000	90.390	0.000	80.285	0.041	0.261	0.000	0.000	90.390	–
KTEKGSGSPHSKAQNQQT	105.614	0.053	0.031	0.169	0.586	0.000	84.653	0.053	105.614	0.031	0.169	0.586	0.000	84.653	–
KTEKISGSPHSKAQNQQT	116.603	0.000	0.000	0.426	0.000	0.000	102.978	0.000	116.603	0.000	0.426	0.000	0.000	102.978	–
KTEKMSGSPHSKAQNQQT	169.461	0.523	0.000	0.158	0.000	0.000	109.161	0.523	169.461	0.000	0.158	0.000	0.000	109.161	–
KTEKNSGSPHSKAQNQQT	–	–	–	–	–	–	–	0.000	73.347	0.000	0.021	0.159	0.044	74.393	–
KTEKSSGSPHSKAQNQQT	107.470	0.000	0.016	0.179	0.977	0.014	100.177	0.000	107.470	0.016	0.179	0.977	0.014	100.177	–
KTEKTSGSPHSKAQNQQT	120.337	0.000	0.355	0.119	0.000	0.000	101.467	0.000	120.337	0.355	0.119	0.000	0.000	101.467	–
KTEKVSGSPHSKAQNQQT	84.558	0.000	0.022	0.424	0.873	0.000	112.185	0.000	84.558	0.022	0.424	0.873	0.000	112.185	–
KTELGSGSPHSKAQNQQT	–	–	–	–	–	–	–	–	–	–	–	–	–	–	Fold Enrichment relative to AAV9, Brain (NHP) [1, 7]: 52.232 fold; Fold Enrichment relative to AAV9, DRG (NHP) ([1]; NHP DRG): 0.000 fold; Fold Enrichment relative to AAV9, Heart (NHP) ([1]; NHP heart): 0.007 fold; Fold Enrichment relative to AAV9, Liver DNA (NHP) ([1]; NHP liver, DNA): 0.088 fold; Fold Enrichment relative to AAV9, Liver RNA (NHP) ([1]; NHP liver, RNA): 0.532 fold; Fold Enrichment relative to AAV9, Muscle (NHP) ([1]; NHP muscle): 0.006 fold; Fold Enrichment relative to AAV9, Brain (Mouse) (brain; mouse brain): 87.314 fold
KTELHSGSPHSKAQNQQT	–	–	–	–	–	–	–	0.000	74.620	0.000	0.089	0.021	0.000	53.124	–
